The structures appear in SMILES notation.

The values that follow come from US9012443B2 (Amgen Inc., priority 2011, dated 2015).

One assay deals with Nav 1.7 (Homo sapiens (Human), UniProt Q15858). Briefly: Nav 1.7 IWQ in vitro assay (IonWorks Quattro population patch-clamp). The assay is classed as cell-based. The conditions noted are these: 293 cells stably transfected with Nav 1.7; first part of table; read-out: Nav 1.7 IWQ IC50. The procedure: Nav 1.7 or Nav 1.5 IWQ In Vitro Assay
Chain of Nav 1.7 (Q15858 whole entry): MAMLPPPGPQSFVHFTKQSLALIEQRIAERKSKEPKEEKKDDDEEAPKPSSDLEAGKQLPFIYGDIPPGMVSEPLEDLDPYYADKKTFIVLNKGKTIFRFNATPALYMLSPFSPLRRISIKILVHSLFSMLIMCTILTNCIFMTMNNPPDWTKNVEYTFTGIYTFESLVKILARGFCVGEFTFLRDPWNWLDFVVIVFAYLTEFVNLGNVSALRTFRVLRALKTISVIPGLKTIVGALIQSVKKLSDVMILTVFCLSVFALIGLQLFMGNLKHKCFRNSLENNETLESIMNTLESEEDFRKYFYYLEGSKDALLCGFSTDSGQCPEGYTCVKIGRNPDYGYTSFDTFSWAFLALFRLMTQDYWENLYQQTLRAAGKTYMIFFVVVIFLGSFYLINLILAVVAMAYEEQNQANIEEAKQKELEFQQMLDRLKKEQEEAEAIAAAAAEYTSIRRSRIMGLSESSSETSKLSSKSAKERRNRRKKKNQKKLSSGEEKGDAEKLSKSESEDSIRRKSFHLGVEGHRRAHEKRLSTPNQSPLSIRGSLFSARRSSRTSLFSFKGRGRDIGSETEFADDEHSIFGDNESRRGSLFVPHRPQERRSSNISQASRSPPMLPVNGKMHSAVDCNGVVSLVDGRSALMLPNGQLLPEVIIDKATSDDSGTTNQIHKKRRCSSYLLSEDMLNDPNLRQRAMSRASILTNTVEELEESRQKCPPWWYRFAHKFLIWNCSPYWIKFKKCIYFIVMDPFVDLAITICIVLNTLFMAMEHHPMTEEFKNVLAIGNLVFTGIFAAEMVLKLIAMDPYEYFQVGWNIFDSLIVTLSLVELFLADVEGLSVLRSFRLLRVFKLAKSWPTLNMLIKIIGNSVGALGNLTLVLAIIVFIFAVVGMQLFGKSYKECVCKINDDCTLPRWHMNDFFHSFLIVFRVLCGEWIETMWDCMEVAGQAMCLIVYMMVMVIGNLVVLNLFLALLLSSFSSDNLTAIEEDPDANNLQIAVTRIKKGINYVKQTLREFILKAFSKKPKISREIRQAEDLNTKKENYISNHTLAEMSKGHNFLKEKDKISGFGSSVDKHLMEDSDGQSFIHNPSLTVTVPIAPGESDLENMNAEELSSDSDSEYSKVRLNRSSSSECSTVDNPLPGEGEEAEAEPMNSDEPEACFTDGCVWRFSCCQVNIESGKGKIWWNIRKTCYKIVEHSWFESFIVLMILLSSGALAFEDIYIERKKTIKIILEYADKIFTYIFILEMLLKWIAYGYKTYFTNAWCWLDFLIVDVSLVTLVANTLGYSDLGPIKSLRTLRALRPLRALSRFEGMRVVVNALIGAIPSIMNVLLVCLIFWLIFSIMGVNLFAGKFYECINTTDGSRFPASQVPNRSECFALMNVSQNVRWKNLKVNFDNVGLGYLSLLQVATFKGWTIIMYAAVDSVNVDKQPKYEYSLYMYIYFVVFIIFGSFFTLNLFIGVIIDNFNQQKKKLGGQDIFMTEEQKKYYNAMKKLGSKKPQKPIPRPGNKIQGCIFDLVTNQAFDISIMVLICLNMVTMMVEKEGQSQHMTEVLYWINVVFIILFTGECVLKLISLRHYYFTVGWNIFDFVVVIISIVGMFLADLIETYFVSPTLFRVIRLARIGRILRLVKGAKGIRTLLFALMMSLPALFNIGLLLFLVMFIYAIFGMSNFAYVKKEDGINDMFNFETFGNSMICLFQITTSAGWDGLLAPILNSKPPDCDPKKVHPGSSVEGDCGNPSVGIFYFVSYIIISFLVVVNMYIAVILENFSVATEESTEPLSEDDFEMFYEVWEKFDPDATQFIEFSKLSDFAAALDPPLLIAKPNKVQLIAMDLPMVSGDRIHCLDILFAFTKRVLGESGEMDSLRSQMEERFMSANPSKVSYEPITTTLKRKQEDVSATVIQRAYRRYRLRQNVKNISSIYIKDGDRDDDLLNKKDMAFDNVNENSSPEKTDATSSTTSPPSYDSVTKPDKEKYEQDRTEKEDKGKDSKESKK
293 Cells stably transfected with either Nav 1.7 or Nav 1.5 were recorded in population patch-clamp mode with the IonWorks® Quattro automated electrophysiology system in accordance with the manufacturer's specifications (Molecular Devices, LLC, Sunnyvale, Calif.). Sodium channel currents were measured in response to a train of depolarizations that induced successively greater inactivation.
Cells were then left unclamped for a period of 3 to 8 minutes while a single concentration of test compound was added. Cells were then reclamped and put through the same voltage protocol. Current at the end of the 26th pulse to −20 mV was subtracted from the peak current evoked by the 26th pulse to −20 mV to correct for leak current. Percent block was calculated for each concentration in duplicate, and IC50 curves were fitted to percent block as a function of concentration.
In general terms: In patch-clamp work, channel activity is measured electrically.
For `O=S(=O)(Nc1ncns1)c1ccc2c(N3CCOC(c4ccccc4)C3)cccc2c1` (single isomer, unassigned) [14 (isomer 1), 5-(2-phenylmorpholino)-N-(1,2,4-thiadiazol-5-yl)naphthalene-2-sulfonamide], the IC50 turned out to be 520 nM.
Take `O=S(=O)(Nc1nccs1)c1ccc2c(N3CCCC3c3ccccc3)cccc2c1` (stereo not drawn) [Example 80]: the IC50 was determined as 1200 nM.
In the case of `COc1cc(Cl)ccc1-c1cccc2cc(S(=O)(=O)Nc3ncco3)ccc12` [Example 45], the IC50 stood at 225 nM.
Consider `COc1cc(C(F)(F)F)ccc1-c1nccc2cc(S(=O)(=O)Nc3ccncn3)ccc12` [Example 67, 1-(2-METHOXY-4-(TRIFLUOROMETHYL)PHENYL)-N-(PYRIMIDIN-4-YL)ISOQUINOLINE-6-SULFONAMIDE], for which the IC50 came to 80 nM.
On the same count and under the same terms, with `CN1CC=C(c2cc(C(F)(F)F)ccc2-c2cccc3cc(S(=O)(=O)Nc4nccs4)ccc23)CC1` [Example 78] the figure was 90 nM; with `O=S(=O)(Nc1ncns1)c1ccc2c(-c3ccc(C(F)(F)F)c(Cl)c3)nccc2c1` [Example 57, 1-(3-CHLORO-4-(TRIFLUOROMETHYL)PHENYL)-N-(1,2,4-THIADIAZOL-5-YL)ISOQUINOLINE-6-SULFONAMIDE], 220 nM.
Consider `O=S(=O)(Nc1ncco1)c1ccc2c(-c3ccc(C(F)(F)F)cc3Cl)cccc2c1` [Example 49], for which the IC50 amounted to 4870 nM.
`O=S(=O)(Nc1ccncn1)c1ccc2c(-c3ccc(C(F)(F)F)cc3Br)nccc2c1` [Example 66, 1-(2-BROMO-4-(TRIFLUOROMETHYL)PHENYL)-N-(PYRIMIDIN-4-YL)ISOQUINOLINE-6-SULFONAMIDE]: the IC50 came to 120 nM.
Turning to `CN1CC(n2nccc2-c2cc(C(F)(F)F)ccc2-c2cccc3cc(S(=O)(=O)Nc4nccs4)ccc23)C1` [Example 82], the IC50 turned out to be 70 nM.
Consider `Cc1cc(Cl)ccc1-c1nccc2cc(S(=O)(=O)Nc3ncns3)ccc12` [Example 62], for which the IC50 was determined as 90 nM.
On the same count and under the same terms, the value for `COC(=O)C1CN(c2cccc3cc(S(=O)(=O)Nc4ncns4)ccc23)CCO1` (stereo not drawn) [Example 17, METHYL 4-(6-(N-(1,2,4-THIADIAZOL-5-YL)SULFAMOYL)NAPHTHALEN-1-YL)MORPHOLINE-2-CARBOXYLATE] was 4560 nM; that for `O=S(=O)(Nc1ncns1)c1ccc2c(N3CCOCC3)cccc2c1` [Example 13] was 3560 nM.
Take `COc1cc(C(F)(F)F)ccc1-c1cccc2cc(S(=O)(=O)Nc3ccncn3)ccc12` [Example 42]: the IC50 was determined as 50 nM.
Still for that read-out and setting: the value for `COc1cc(Cl)ccc1-c1cccc2cc(S(=O)(=O)Nc3nccs3)ccc12` [Example 46] was 36 nM; that for `O=S(=O)(Nc1nccs1)c1ccc2c(-c3ccc(C(F)(F)F)cc3Cl)cccc2c1` [Example 79] was 900 nM; that for `COc1ccc(-c2nccc3cc(S(=O)(=O)Nc4ncns4)ccc23)c(OC)c1` [Example 59, 1-(2,4-DIMETHOXYPHENYL)-N-(1,2,4-THIADIAZOL-5-YL)ISOQUINOLINE-6-SULFONAMIDE] was 60 nM.
For the molecule `O=S(=O)(Nc1ncns1)c1ccc2c(-c3ccc(C(F)(F)F)cc3Cl)nccc2c1` [Example 56, 1-(2-CHLORO-4-(TRIFLUOROMETHYL)PHENYL)-N-(1,2,4-THIADIAZOL-5-YL)ISOQUINOLINE-6-SULFONAMIDE], the IC50 turned out to be 60 nM.

Still in this assay, the particulars now being: 293 cells stably transfected with Nav 1.7; second part of table; read-out: Nav1.7 IWQ IC50 IP.
For `Cn1ncnc1COc1nccc2cc(S(=O)(=O)Nc3ccncn3)ccc12` [Example 295, 1-((1-METHYL-1H-1,2,4-TRIAZOL-5-YL)METHOXY)-N-(PYRIMIDIN-4-YL)ISOQUINOLINE-6-SULFONAMIDE], the IC50 is above 10000 nM.
With `N#CC1(COc2nccc3cc(S(=O)(=O)Nc4ccncn4)ccc23)CC1` [Example 135, 1-((1-CYANOCYCLOPROPYL)METHOXY)-N-(PYRIMIDIN-4-YL)ISOQUINOLINE-6-SULFONAMIDE], the 50% inhibitory concentration (IC50) was found to be 3300 nM.
In the case of `N#Cc1cccc2cc(S(=O)(=O)Nc3ncns3)ccc12` [Example 317], the IC50 is above 10000 nM.
`COc1cc(C(F)(F)F)ccc1-c1nccc2cc(S(=O)(=O)Nc3ccncn3)cnc12` [Example 292, 8-(2-METHOXY-4-(TRIFLUOROMETHYL)PHENYL)-N-(PYRIMIDIN-4-YL)-1,7-NAPHTHYRIDINE-3-SULFONAMIDE]: the IC50 was found to be 3940 nM.
As to `O=S(=O)(Nc1ccncn1)c1ccc2c(C3CCCN3C3CCOCC3)nccc2c1` (stereo not drawn) [Example 316, N-(PYRIMIDIN-4-YL)-1-(1-(TETRAHYDRO-2H-PYRAN-4-YL)PYRROLIDIN-2-YL)ISOQUINOLINE-6-SULFONAMIDE 2,2,2-TRIFLUOROACETATE], the IC50 was above 10000 nM.
Take `O=S(=O)(Nc1ccncn1)c1ccc2c(OCc3cccnc3)nccc2c1` [Example 128, 1-(PYRIDIN-3-YLMETHOXY)-N-(PYRIMIDIN-4-YL)ISOQUINOLINE-6-SULFONAMIDE]: the IC50 came to 3960 nM.
On the same count and under the same terms, with `COc1cc(C(F)(F)F)ccc1-c1nccc2cc(S(=O)(=O)NC(C)=O)ccc12` [Example 314, N-((1-(2-METHOXY-4-(TRIFLUOROMETHYL)PHENYL)ISOQUINOLIN-6-YL)SULFONYL)ACETAMIDE] the figure was above 10000 nM; with `Cc1nn(-c2ccccc2)nc1COc1nccc2cc(S(=O)(=O)Nc3ccncn3)ccc12` [Example 138, 1-((5-METHYL-2-PHENYL-2H-1,2,3-TRIAZOL-4-YL)METHOXY)-N-(PYRIMIDIN-4-YL)ISOQUINOLINE-6-SULFONAMIDE], 3960 nM.
As to `O=S(=O)(Nc1ccncn1)c1ccc2c(OCCn3cccc3)nccc2c1` [Example 303, 1-(2-(1H-PYRROL-1-YL)ETHOXY)-N-(PYRIMIDIN-4-YL)ISOQUINOLINE-6-SULFONAMIDE], the IC50 was above 10000 nM.
As to `O=S(=O)(Nc1ccncn1)c1ccc2c(OCc3cccnc3N3CCOCC3)nccc2c1` [Example 298, 1-((2-MORPHOLINOPYRIDIN-3-YL)METHOXY)-N-(PYRIMIDIN-4-YL)ISOQUINOLINE-6-SULFONAMIDE], the IC50 is above 10000 nM.

The assay is the same for the next values; noted with them: at […].
For `Cn1ncnc1COc1nccc2cc(S(=O)(=O)Nc3ccncn3)ccc12` [Example 295, 1-((1-METHYL-1H-1,2,4-TRIAZOL-5-YL)METHOXY)-N-(PYRIMIDIN-4-YL)ISOQUINOLINE-6-SULFONAMIDE], the “Nav1.7 Single Point Data IWQ (at […]) (%)” value is 36%.
In the case of `O=S(=O)(Nc1nccs1)c1ccc2c(N3CCCCC3c3cccnc3)ncnc2c1` (stereo not drawn) [Example 536, 4-(2-(PYRIDIN-3-YL)PIPERIDIN-1-YL)-N-(THIAZOL-2-YL)QUINAZOLINE-7-SULFONAMIDE], the “Nav1.7 Single Point Data IWQ (at […]) (%)” value is 28.3%.
For the molecule `Cc1cc(S(=O)(=O)N(C)C)ccc1-c1nccc2cc(S(=O)(=O)Nc3ccncn3)ccc12` [Example 433], the “Nav1.7 Single Point Data IWQ (at […]) (%)” value turned out to be 21.2%.
On to `COc1cc(C(F)(F)F)ccc1-c1nccc2cc(S(=O)(=O)n3ccc(N)n3)ccc12` [Example 390, 1-((1-(2-METHOXY-4-(TRIFLUOROMETHYL)PHENYL)ISOQUINOLIN-6-YL) SULFONYL)-1H-PYRAZOL-3-AMINE], for which the “Nav1.7 Single Point Data IWQ (at […]) (%)” value is recorded as 19.8%.
Turning to `O=S(=O)(Nc1ccncn1)c1ccc2c(-c3cccc4cc[nH]c34)nccc2c1` [Example 434, 1-(1H-INDOL-7-YL)-N-(PYRIMIDIN-4-YL)ISOQUINOLINE-6-SULFONAMIDE], the “Nav1.7 Single Point Data IWQ (at […]) (%)” value is listed as 20.0%.
In the case of `COc1cc(-c2ccncc2)ccc1-c1nccc2cc(S(=O)(=O)Nc3ccncn3)ccc12` [Example 451, 1-(2-METHOXY-4-(PYRIDIN-4-YL)PHENYL)-N-(PYRIMIDIN-4-YL)ISOQUINOLINE-6-SULFONAMIDE], the “Nav1.7 Single Point Data IWQ (at […]) (%)” value was determined as 27.5%.
Take `N#Cc1cccc2cc(S(=O)(=O)Nc3ncns3)ccc12` [Example 317]: the “Nav1.7 Single Point Data IWQ (at […]) (%)” value was 30%.
The same measure, in the same setting: with `Cc1cnc(OCc2ccccc2)c(-c2nccc3cc(S(=O)(=O)Nc4nccs4)ccc23)c1` [Example 380, 1-(2-(BENZYLOXY)-5-METHYLPYRIDIN-3-YL)-N-(THIAZOL-2-YL)ISOQUINOLINE-6-SULFONAMIDE] the figure was 40%; with `COc1cc(C(=O)CCCCO)ccc1-c1nccc2cc(S(=O)(=O)Nc3ccncn3)ccc12` [Example 463, 1-(4-(5-HYDROXYPENTANOYL)-2-METHOXYPHENYL)-N-(PYRIMIDIN-4-YL)ISOQUINOLINE-6-SULFONAMIDE], 41.1%.
In the case of `CCC1CCCCN1c1ncnc2cc(S(=O)(=O)Nc3nccs3)ccc12` (stereo not drawn) [Example 535, 4-(2-ETHYLPIPERIDIN-1-YL)-N-(THIAZOL-2-YL)QUINAZOLINE-7-SULFONAMIDE], the “Nav1.7 Single Point Data IWQ (at […]) (%)” value is 26%.
For the molecule `O=S(=O)(Nc1ccncn1)c1ccc2c(C3CCCN3C3CCOCC3)nccc2c1` (stereo not drawn) [Example 316, N-(PYRIMIDIN-4-YL)-1-(1-(TETRAHYDRO-2H-PYRAN-4-YL)PYRROLIDIN-2-YL)ISOQUINOLINE-6-SULFONAMIDE 2,2,2-TRIFLUOROACETATE], the “Nav1.7 Single Point Data IWQ (at […]) (%)” value worked out at 26%.
Regarding `COc1cc(C(F)F)c(F)cc1-c1ncnc2cc(S(=O)(=O)NC3=NCCS3)ccc12` [Example 519, 4-(4-(DIFLUOROMETHYL)-5-FLUORO-2-METHOXYPHENYL)-N-(4,5-DIHYDROTHIAZOL-2-YL)QUINAZOLINE-7-SULFONAMIDE], the “Nav1.7 Single Point Data IWQ (at […]) (%)” value was below 20%.
On the same count and under the same terms, the value for `COc1cc(C(F)(F)F)ccc1-c1nccc2cc(S(=O)(=O)NC(C)=O)ccc12` [Example 314, N-((1-(2-METHOXY-4-(TRIFLUOROMETHYL)PHENYL)ISOQUINOLIN-6-YL)SULFONYL)ACETAMIDE] was 39%; that for `Cc1cnc(OC2CCCN(C)C2)c(-c2nccc3cc(S(=O)(=O)Nc4ccncn4)ccc23)c1` (stereo not drawn) [Example 383, 1-(5-METHYL-2-((1-METHYLPIPERIDIN-3-YL)OXY)PYRIDIN-3-YL)-N-(PYRIMIDIN-4-YL)ISOQUINOLINE-6-SULFONAMIDE] was 30.2%; that for `Cc1nsc(NS(=O)(=O)c2ccc3c(-c4ccc(Cl)cc4C)nccc3c2)n1` [Example 356] was 27%.
As to `O=S(=O)(Nc1ccncn1)c1ccc2c(OCCn3cccc3)nccc2c1` [Example 303, 1-(2-(1H-PYRROL-1-YL)ETHOXY)-N-(PYRIMIDIN-4-YL)ISOQUINOLINE-6-SULFONAMIDE], the “Nav1.7 Single Point Data IWQ (at […]) (%)” value worked out at 40%.
Same read-out and setting: the value for `O=S(=O)(Nc1ccncn1)c1ccc2c(OCc3cccnc3N3CCOCC3)nccc2c1` [Example 298, 1-((2-MORPHOLINOPYRIDIN-3-YL)METHOXY)-N-(PYRIMIDIN-4-YL)ISOQUINOLINE-6-SULFONAMIDE] was 29%; that for `CC(C)c1ccc2[nH]ncc2c1-c1nccc2cc(S(=O)(=O)Nc3ccncn3)ccc12` [Example 430, 1-(5-ISOPROPYL-1H-INDAZOL-4-YL)-N-(PYRIMIDIN-4-YL)ISOQUINOLINE-6-SULFONAMIDE] was 35.4%.

Usually IC50 stands for the point on the concentration scale where inhibition reaches its midpoint.
